The source of these data is article PMC3759421, “Blocking Plasmodium falciparum Development via Dual Inhibition of Hemoglobin Degradation and the Ubiquitin Proteasome System by MG132” (PLoS ONE, 2013).

The target in experiment [1] is T1, falcipain-2 (FP2) (Plasmodium falciparum, UniProt Q8I6U4).
T1 construct: gene FP2A; carboxy-terminus region of the prodomain (36 amino acid residues) and the entire mature protease domain
Kind of experiment: recombinant enzyme inhibition, Z-LR-AMC hydrolysis progress curves (association rate constant). Format: biochemical. Particulars: read-out: FP2.

Experiment [2] concerns the target T2, falcipain-3 (FP3) (Plasmodium falciparum, UniProt Q8IIL0).
T2 construct: carboxy-terminus region of the prodomain (35 amino acid residues) and the entire mature protease domain
The experiment is described as above. Format: biochemical. Particulars: read-out: FP3. The text has this: recombinant enzyme inhibition, Z-LR-AMC hydrolysis progress curves (association rate constant) on falcipain-3 (FP3) | MG132 and E64 inhibited hydrolysis of Z-LR-AMC by both enzymes (Figure 4B), confirming that MG132 is a falcipain inhibitor

In experiment [3] the target is T1, falcipain-2 (FP2). As to the kind of experiment: biochemical. To be noted: read-out: FP2. The protocol:
recombinant enzyme inhibition, Z-LR-AMC hydrolysis progress curves (association rate constant); active site titration on falcipain-2 (FP2) | Concentrations of active FP2 and FP3 were determined by active site titration using E64

The target in experiment [4] is T2, falcipain-3 (FP3). Kind of experiment: recombinant enzyme inhibition, Z-LR-AMC hydrolysis progress curves (association rate constant); active site titration. The experiment is classed as biochemical. To be noted: read-out: FP3. The text has this: recombinant enzyme inhibition, Z-LR-AMC hydrolysis progress curves (association rate constant); active site titration on falcipain-3 (FP3) | MG132 and E64 inhibited hydrolysis of Z-LR-AMC by both enzymes (Figure 4B)

Peptide text beside a SMILES is read from it. * marks the point of attachment. Cbz = O=C(OCc1ccccc1)*

T2 sequence (Q8IIL0 208-492): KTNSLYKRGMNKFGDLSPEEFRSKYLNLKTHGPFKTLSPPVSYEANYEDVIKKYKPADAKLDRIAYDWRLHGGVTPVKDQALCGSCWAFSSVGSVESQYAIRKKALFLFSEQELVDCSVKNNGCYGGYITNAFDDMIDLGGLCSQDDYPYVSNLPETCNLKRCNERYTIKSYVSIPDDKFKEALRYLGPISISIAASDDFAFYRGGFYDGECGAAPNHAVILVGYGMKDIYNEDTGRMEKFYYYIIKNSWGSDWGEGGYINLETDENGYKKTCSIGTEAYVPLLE
T1 sequence (Q8I6U4 208-484): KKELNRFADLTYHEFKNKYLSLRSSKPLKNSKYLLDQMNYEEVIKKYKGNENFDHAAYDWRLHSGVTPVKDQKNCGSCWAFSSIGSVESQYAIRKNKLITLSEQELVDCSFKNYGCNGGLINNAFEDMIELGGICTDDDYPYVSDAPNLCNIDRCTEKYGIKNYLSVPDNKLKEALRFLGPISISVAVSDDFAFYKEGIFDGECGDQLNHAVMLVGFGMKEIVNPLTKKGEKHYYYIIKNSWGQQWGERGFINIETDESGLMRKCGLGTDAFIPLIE

On to `CC(C)C[C@@H](C=O)NC(=O)[C@H](CC(C)C)NC(=O)[C@H](CC(C)C)NC(=O)OCc1ccccc1` [MG132] (Cbz-Leu-Leu-Leu-aldehyde), for which the kon came to 189000 M⁻¹ s⁻¹ in experiment [1] and 412000 M⁻¹ s⁻¹ in experiment [2].

With `CC(C)C[C@H](NC(=O)[C@H]1O[C@@H]1C(=O)O)C(=O)NCCCCN=C(N)N` [E64, L-trans-epoxysuccinyl-leucyl-amido(4-guanidino)butane], the figures for the kon in experiment [3] and in experiment [4] were 10300 M⁻¹ s⁻¹ and 4090 M⁻¹ s⁻¹, respectively.
